According to PMC12257542, “A Radiolabeled Photoswitchable G Protein-Coupled Receptor Antagonist Enlightens Ligand Binding Kinetics Associated with Photoswitching” (Journal of the American Chemical Society, 2025):
“And” between values parts separate entries of the source, which are not always exact repeats. Identical values can stand only once. Like-named read-outs stand apart in the source and are kept apart here.

Columns and labels:
H3R = H3R (Homo sapiens, UniProt Q9Y5N1); experiment: [3H]NAMH competition radioligand binding on cell homogenates overexpressing H3R; settings: for Ki: [3H]NAMH competition, n = 3
Sequence of H3R (Q9Y5N1 whole entry): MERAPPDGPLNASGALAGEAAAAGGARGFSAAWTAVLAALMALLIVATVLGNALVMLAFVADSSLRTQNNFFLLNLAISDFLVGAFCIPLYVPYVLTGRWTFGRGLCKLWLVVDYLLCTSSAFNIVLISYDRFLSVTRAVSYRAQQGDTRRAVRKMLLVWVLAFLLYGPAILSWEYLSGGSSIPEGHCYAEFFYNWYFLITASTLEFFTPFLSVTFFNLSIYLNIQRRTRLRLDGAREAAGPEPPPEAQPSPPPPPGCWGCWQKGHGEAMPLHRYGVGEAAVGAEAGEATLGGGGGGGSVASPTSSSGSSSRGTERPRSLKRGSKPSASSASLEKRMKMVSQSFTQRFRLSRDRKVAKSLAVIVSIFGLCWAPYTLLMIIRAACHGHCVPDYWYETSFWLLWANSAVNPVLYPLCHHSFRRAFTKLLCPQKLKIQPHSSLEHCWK

H1R = target: T1, H1R (Homo sapiens, UniProt P35367); experiment: Histamine receptor selectivity binding, [3H]mepyramine competition on cell homogenates expressing H1R; settings: trans isomer; at concentrations lower than 1 μM; competition with [3H]mepyramine
T1 construct: HA; expressed in transfected cells; host or cells: HEK293T, transient transfection (pcDEF3), cell homogenates
T1 sequence (P35367 whole entry): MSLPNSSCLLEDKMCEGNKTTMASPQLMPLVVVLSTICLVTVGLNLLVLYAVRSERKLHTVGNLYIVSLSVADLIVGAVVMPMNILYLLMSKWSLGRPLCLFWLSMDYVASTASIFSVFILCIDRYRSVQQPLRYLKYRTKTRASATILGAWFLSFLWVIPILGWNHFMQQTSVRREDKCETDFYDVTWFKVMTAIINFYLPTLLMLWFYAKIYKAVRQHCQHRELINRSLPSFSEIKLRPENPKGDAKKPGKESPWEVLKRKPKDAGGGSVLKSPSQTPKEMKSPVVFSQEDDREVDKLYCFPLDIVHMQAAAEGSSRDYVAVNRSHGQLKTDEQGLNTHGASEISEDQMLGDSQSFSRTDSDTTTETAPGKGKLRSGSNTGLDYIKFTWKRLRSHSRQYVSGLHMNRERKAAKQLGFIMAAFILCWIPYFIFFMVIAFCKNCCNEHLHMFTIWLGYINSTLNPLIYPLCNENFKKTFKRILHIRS

[1] = Nephelometry (qualitative solubility comparison); assay type: physicochemical; settings: trans state for VUF14862, either state for 3f
[2] = UV-vis spectra of trans and PSS cis states in HBSS buffer; assay type: physicochemical; settings: 25 μM in HBSS buffer containing 1% DMSO
Protocol: (§1) Experimental procedures – Photochemistry
UV−Vis spectra were recorded using a Thermo-scientific Evolution 201 PC spectrophotometer equipped with a thermostated cell holder set at 20 °C. Fits of UV−vis spectroscopy data were generated using Prism 10.1.0. Illumination for almost all photochemical experiments was executed using a Sutter instruments Lambda LS with a 300 W full-spectrum lamp connected to a Sutter instruments Lambda 10-3 optical filter changer equipped with 360 ± 10 nm, 434 ± 9 nm 494 ± 9 nm, or a Lambda 721 optical beam combiner system equipped with 365 ± 11 nm and 506 ± 14 nm filter. The light intensity used for the lambda 10-3 optical filter is 0.93 mW/mm2 using the 360 ± 20 nm filter, 0.79 mW/mm2 for the 434 ± 9 nm filter, 0.77 mW/mm2 for the 494 ± 9 nm filter as measured using a Thorlabs PM16−401 power meter. The light intensity used for the lambda 721 optical beam combiner is 200 mW using the 365 ± 11 nm filter and 60 mW for the 506 ± 12 nm filter. For photochemical analyses, illuminations were performed in Hellma Suprasil quartz 114QS cuvettes. For the dynamic illuminations, a 4-way cuvette holder (Avantes) was used. The left outlet of the holder is connected to an Avantes AvaLight-DH-S-BAL Deuterium lamp. The right outlet is connected through a fiber to an AvaSpec UV/Vis spectrometer. The lower outlet is connected to a Lambda 721 optical beam combiner system equipped with 365 ± 11 nm and 506 ± 14 nm filter illumination means. The upper outlet is covered with a black cap. The temperature of the solution in the cuvette (20 °C) is controlled by Q-blue Wireless Temperature Control software. […]
The typical distance […]
between light source and vial or cuvette was 2 cm.

[3] = Thermal relaxation of PSS cis states (Arrhenius extrapolation); assay type: physicochemical; settings: approximate; HBSS buffer + 1% DMSO, extrapolated to 20 °C
Protocol: as §1
UV−Vis spectra were recorded using a Thermo-scientific Evolution 201 PC spectrophotometer equipped with a thermostated cell holder set at 20 °C. Fits of UV−vis spectroscopy data were generated using Prism 10.1.0. Illumination for almost all photochemical experiments was executed using a Sutter instruments Lambda LS with a 300 W full-spectrum lamp connected to a Sutter instruments Lambda 10-3 optical filter changer equipped with 360 ± 10 nm, 434 ± 9 nm 494 ± 9 nm, or a Lambda 721 optical beam combiner system equipped with 365 ± 11 nm and 506 ± 14 nm filter. The light intensity used for the lambda 10-3 optical filter is 0.93 mW/mm2 using the 360 ± 20 nm filter, 0.79 mW/mm2 for the 434 ± 9 nm filter, 0.77 mW/mm2 for the 494 ± 9 nm filter as measured using a Thorlabs PM16−401 power meter. The light intensity used for the lambda 721 optical beam combiner is 200 mW using the 365 ± 11 nm filter and 60 mW for the 506 ± 12 nm filter. For photochemical analyses, illuminations were performed in Hellma Suprasil quartz 114QS cuvettes. For the dynamic illuminations, a 4-way cuvette holder (Avantes) was used. The left outlet of the holder is connected to an Avantes AvaLight-DH-S-BAL Deuterium lamp. The right outlet is connected through a fiber to an AvaSpec UV/Vis spectrometer. The lower outlet is connected to a Lambda 721 optical beam combiner system equipped with 365 ± 11 nm and 506 ± 14 nm filter illumination means. The upper outlet is covered with a black cap. The temperature of the solution in the cuvette (20 °C) is controlled by Q-blue Wireless Temperature Control software.
Thermal relaxation experiments and Arrhenius extrapolations were performed according to Priimagi et al20, using a compound concentration of 25 μM in HBSS +1% DMSO and temperatures of 50, 60, and 70 °C. Illuminations for pharmacological experiments were performed in cylindrical clear glass vials with a volume of 4.5 mL. The typical distance between light source and vial or cuvette was 2 cm.

H4R = target: T2, H4R (Homo sapiens, UniProt Q9H3N8); experiment: Histamine receptor selectivity binding, [3H]histamine competition on cell homogenates expressing H4R; settings: trans isomer; at concentrations lower than 1 μM; competition with [3H]histamine
T2 construct: HA; expressed in transfected cells; host or cells: HEK293T, transient transfection (pcDEF3), cell homogenates
T2 sequence (Q9H3N8 whole entry): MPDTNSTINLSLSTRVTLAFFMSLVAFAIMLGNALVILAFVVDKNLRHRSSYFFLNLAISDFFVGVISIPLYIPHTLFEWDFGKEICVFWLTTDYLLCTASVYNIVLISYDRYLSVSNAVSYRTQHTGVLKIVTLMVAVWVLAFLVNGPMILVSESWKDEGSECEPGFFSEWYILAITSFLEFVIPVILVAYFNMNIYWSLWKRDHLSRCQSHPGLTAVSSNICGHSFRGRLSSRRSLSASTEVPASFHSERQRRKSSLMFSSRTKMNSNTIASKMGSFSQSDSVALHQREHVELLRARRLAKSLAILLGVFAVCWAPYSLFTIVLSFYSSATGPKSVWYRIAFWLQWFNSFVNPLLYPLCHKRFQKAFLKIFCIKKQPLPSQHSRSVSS

[4] = Photostationary state area percentages by LC-MS at the isosbestic point; assay type: physicochemical
hH3R = hH3R (Homo sapiens, UniProt Q9Y5N1); experiment: Competition binding of non-labeled ligands with trans-[3H]3f on hH3R-expressing cell homogenates; settings: read-out: pKi in competition with trans-[3H]3f (converted)
Sequence of hH3R (Q9Y5N1 whole entry): as the sequence (Q9Y5N1 whole entry) above

SMILES: Cc1nn(C2CCN(C)CC2)c(C)c1/N=N/c1ccc(O[C@H]2C[C@H](N3CCCCC3)C2)cc1 [Compound 3f]
- Fold Ki shift (H3R; (high-affinity state)/(low-affinity state), ↓ lower affinity of PSS cis state than trans): 50 fold and 50.1 ↓ fold
- Ki (H3R; pKi PSScis ± SEM, PSS cis state): 0.0251 µM
- Ki (H3R; pKi trans ± SEM, trans isomer): 0.000501 µM
- binding to H1R (H1R): does not bind
- concentrations with tendency to aggregate/precipitate [1]: not observed
- λmax cis [2]: 439 nm
- λmax trans [2]: 348 nm
- Half-life (thermal relaxation of PSS cis state) [3]: 13 days
- binding to H4R (H4R): does not bind
- PSScis (area %cis) ([4]; after illumination of trans isomer with 365 ± 10 nm at 1 mM in DMSO for 10 min): 98 area %
- PSStrans (area %trans) ([4]; illumination of PSS cis state with 506 ± 20 nm at 1 mM in DMSO for 10 min): 93 area %
- Ki (hH3R; unlabeled PSS cis state): 0.02 µM
- Ki (hH3R; unlabeled trans isomer): 0.001 µM
